The values that follow are results of earlier work, collected in patent US9409783B2, “Method for manufacturing mesoporous materials, materials so produced and use of mesoporous materials” (Nanologica AB, priority 2008, dated 2016).

SMILES strings stand for the structures.

The conditions of this data set: L-glutamate group of folic acid; deprotonated and negatively charged above this pH.

With `Nc1nc2ncc(CNc3ccc(C(=O)N[C@@H](CCC(=O)O)C(=O)O)cc3)nc2c(=O)[nH]1` [folic acid], the pKa value is 8.3.
